O=C(O)CC(O)C(=O)O (stereo unspecified)
solubility (mole fraction)
Details	298.15 K	303.15 K	308.15 K	313.15 K	318.15 K	323.15 K	328.15 K	333.15 K
in ethanol	0.109	0.12	0.136	0.148	0.165	0.184	0.207	0.227
in water	0.15	0.161	0.178	0.196	0.213	0.229	0.249	0.271
